From US20090074815A1, “Immunomodulator Compounds as Vaccine Enhancers” (SCICLONE PHARMACEUTICALS, INC., priority 2005, published 2009)
Where two headings read alike, the source gives them in different places.

Tested on: IL-10 production by OvA-stimulated splenocytes
Assay: OvA-stimulated production of IL-10 by splenocytes of OvA-immunized mice
Conditions: for activity at 0.01 mg/kg: Mus musculus, Splenocyte, po, read-out: Production of IL-10 by splenocytes, % (% of control), OvA/FA
[1] = OvA/Alum, 0.1 μg/kg i/p, OvA 10 μg/ml
[2] = OvA/Alum, 0.1 μg/kg i/p, OvA 25 μg/ml
[3] = OvA/Alum, 0.1 μg/kg i/p, OvA 50 μg/ml
[4] = OvA/Alum, 0.1 μg/kg i/p, OvA 100 μg/ml
[5] = OvA/Alum, 1.0 μg/kg i/p, OvA 10 μg/ml
[6] = OvA/Alum, 1.0 μg/kg i/p, OvA 25 μg/ml
[7] = OvA/Alum, 1.0 μg/kg i/p, OvA 50 μg/ml
[8] = OvA/Alum, 1.0 μg/kg i/p, OvA 100 μg/ml
[9] = OvA/FA, 0.1 μg/kg i/p, OvA 10 μg/ml
[10] = OvA/FA, 0.1 μg/kg i/p, OvA 25 μg/ml
[11] = OvA/FA, 0.1 μg/kg i/p, OvA 50 μg/ml
[12] = OvA/FA, 0.1 μg/kg i/p, OvA 100 μg/ml
[13] = OvA/FA, 1.0 μg/kg i/p, OvA 10 μg/ml
[14] = OvA/FA, 1.0 μg/kg i/p, OvA 25 μg/ml
[15] = OvA/FA, 1.0 μg/kg i/p, OvA 50 μg/ml
[16] = OvA/FA, 1.0 μg/kg i/p, OvA 100 μg/ml

Protocol: The OvA was administered subcutaneously to the crest in a volume of 200 μl. Mice were immunized on day 1 with OvA in complete Freund's adjuvant (CFA; Sigma) and on day 15 with the antigen in incomplete Freund's adjuvant (IFA; Sigma). The immune response was analyzed on day 29. Mice were also immunized with 10 μg/mouse of OvA using Alum as an adjuvant.
Thymuses and spleens from mice of each treatment group were pooled, and then minced with scissors. The minced tissues were suspended in sterile PBS to form cell suspensions, filtered through a double gauze layer and centrifuged. Cells were washed twice with PBS, re-suspended in RPMI-1640 (Sigma) with 2.0 mM of L-glutamine, 50 μM of mercaptoethanol, and 10 μg/ml of gentamycin (complete medium); and cell counts were made. (The splenocyte suspension was washed with a 0.86% solution of NH4Cl to pre-lyse erthrocytes.)
Assessment of Mitogen- and Antigen-Induced Production of Cytokines: Thymic cells (1×10^6/well) in complete medium with 2% FCS were stimulated with ConA (0, 1, and 2 μg/ml). Splenocytes (1×10^6/well) in complete medium with 5% FCS were stimulated with ConA (0, 1, and 5 μg/ml) and with OvA (0-100 μg/ml). […] Supernatants from OvA-stimulated cultures were collected after 72 hours. Supernatants from both cultures were frozen, and kept at 20° C. Concentrations of IL-2, IL-4, IL-10, IL-12R40 and IFNγ in the supernatants were determined by solid-phase EIA with EIA Expansion Kits, available from BD Biosciences (formerly Pharmingen), in accordance with the manufacturer's instructions.

Q: How did the activity at 0.01 mg/kg (10.0 μg/kg per os, OvA 25 μg/ml) turn out when `N[C@H](CCC(=O)N[C@@H](Cc1c[nH]c2ccccc12)C(=O)O)C(=O)O` [SCV-07, γ-D-glutamyl-L-tryptophan] was run?
A: 174%

Q: And the activity at 0.01 mg/kg (10.0 μg/kg per os, OvA 50 μg/ml)?
A: 216%

Q: And the activity at 0.01 mg/kg (10.0 μg/kg per os, OvA 100 μg/ml)?
A: 250%

Q: And the “Production of IL-10 by splenocytes” value (OvA/Alum, 0.1 μg/kg i/p, OvA 0 μg/ml)?
A: 2177.8 pg/mL

Q: And the “Production of IL-10 by splenocytes” value [1]?
A: 1762.5 pg/mL

Q: What about the “Production of IL-10 by splenocytes, % (% of control)” value (“Production … (% of control)” below) [1] of the same molecule?
A: 80.9%

Q: And the “Production of IL-10 by splenocytes” value [2]?
A: 1946.1 pg/mL

Q: What about the “Production … (% of control)” value [2] of the same molecule?
A: 89.4%

Q: What about the “Production of IL-10 by splenocytes” value [3] of the same molecule?
A: 1851.3 pg/mL

Q: What about the “Production … (% of control)” value [3] of the same molecule?
A: 85.0%

Q: And the “Production of IL-10 by splenocytes” value [4]?
A: 2189.5 pg/mL

Q: And the “Production … (% of control)” value [4]?
A: 100.5%

Q: And the “Production of IL-10 by splenocytes” value (OvA/Alum, 0.1 μg/kg per os, OvA 0 μg/ml)?
A: 1351.1 pg/mL

Q: And the “Production of IL-10 by splenocytes” value (OvA/Alum, 0.1 μg/kg per os, OvA 10 μg/ml)?
A: 1587.9 pg/mL

Q: What about the “Production of IL-10 by splenocytes” value (OvA/Alum, 0.1 μg/kg per os, OvA 25 μg/ml) of the same molecule?
A: 1419.5 pg/mL

Q: And the “Production of IL-10 by splenocytes” value (OvA/Alum, 0.1 μg/kg per os, OvA 50 μg/ml)?
A: 1783.6 pg/mL

Q: And the “Production of IL-10 by splenocytes” value (OvA/Alum, 0.1 μg/kg per os, OvA 100 μg/ml)?
A: 1741.5 pg/mL

Q: What about the “Production of IL-10 by splenocytes” value (OvA/Alum, 1.0 μg/kg i/p, OvA 0 μg/ml) of the same molecule?
A: 2035.7 pg/mL

Q: And the “Production of IL-10 by splenocytes” value [5]?
A: 1758.9 pg/mL

Q: And the “Production … (% of control)” value [5]?
A: 86.4%

Q: And the “Production of IL-10 by splenocytes” value [6]?
A: 1829.8 pg/mL

Q: And the “Production … (% of control)” value [6]?
A: 89.9%

Q: What about the “Production of IL-10 by splenocytes” value [7] of the same molecule?
A: 1584.7 pg/mL

Q: What about the “Production … (% of control)” value [7] of the same molecule?
A: 77.8%

Q: And the “Production of IL-10 by splenocytes” value [8]?
A: 1840.7 pg/mL

Q: And the “Production … (% of control)” value [8]?
A: 90.4%

Q: And the “Production of IL-10 by splenocytes” value (OvA/Alum, 1.0 μg/kg per os, OvA 0 μg/ml)?
A: 1741.5 pg/mL

Q: And the “Production of IL-10 by splenocytes” value (OvA/Alum, 1.0 μg/kg per os, OvA 10 μg/ml)?
A: 2220.9 pg/mL

Q: And the “Production of IL-10 by splenocytes” value (OvA/Alum, 1.0 μg/kg per os, OvA 25 μg/ml)?
A: 1957.2 pg/mL

Q: And the “Production of IL-10 by splenocytes” value (OvA/Alum, 1.0 μg/kg per os, OvA 50 μg/ml)?
A: 1920.4 pg/mL

Q: What about the “Production of IL-10 by splenocytes” value (OvA/Alum, 1.0 μg/kg per os, OvA 100 μg/ml) of the same molecule?
A: 1898.4 pg/mL

Q: And the “Production of IL-10 by splenocytes” value (OvA/Alum, 10.0 μg/kg per os, OvA 0 μg/ml)?
A: 816.4 pg/mL

Q: And the “Production of IL-10 by splenocytes” value (OvA/Alum, 10.0 μg/kg per os, OvA 10 μg/ml)?
A: 1127.5 pg/mL

Q: What about the “Production of IL-10 by splenocytes” value (OvA/Alum, 10.0 μg/kg per os, OvA 25 μg/ml) of the same molecule?
A: 1272.5 pg/mL

Q: And the “Production of IL-10 by splenocytes” value (OvA/Alum, 10.0 μg/kg per os, OvA 50 μg/ml)?
A: 1608.4 pg/mL

Q: And the “Production of IL-10 by splenocytes” value (OvA/Alum, 10.0 μg/kg per os, OvA 100 μg/ml)?
A: 1780.1 pg/mL

Q: And the “Production of IL-10 by splenocytes” value (OvA/FA, 0.1 μg/kg i/p, OvA 0 μg/ml)?
A: 785.1 pg/mL

Q: And the “Production of IL-10 by splenocytes” value [9]?
A: 989.4 pg/mL

Q: And the “Production … (% of control)” value [9]?
A: 126.0%

Q: What about the “Production of IL-10 by splenocytes” value [10] of the same molecule?
A: 1234.3 pg/mL

Q: What about the “Production … (% of control)” value [10] of the same molecule?
A: 157.2%

Q: And the “Production of IL-10 by splenocytes” value [11]?
A: 1194.2 pg/mL

Q: What about the “Production … (% of control)” value [11] of the same molecule?
A: 152.1%

Q: And the “Production of IL-10 by splenocytes” value [12]?
A: 1502.4 pg/mL

Q: What about the “Production … (% of control)” value [12] of the same molecule?
A: 191.4%

Q: And the “Production of IL-10 by splenocytes” value (OvA/FA, 0.1 μg/kg per os, OvA 0 μg/ml)?
A: 702.5 pg/mL

Q: And the “Production of IL-10 by splenocytes” value (OvA/FA, 0.1 μg/kg per os, OvA 10 μg/ml)?
A: 958.9 pg/mL

Q: What about the “Production of IL-10 by splenocytes” value (OvA/FA, 0.1 μg/kg per os, OvA 25 μg/ml) of the same molecule?
A: 1478.2 pg/mL

Q: What about the “Production of IL-10 by splenocytes” value (OvA/FA, 0.1 μg/kg per os, OvA 50 μg/ml) of the same molecule?
A: 1739.2 pg/mL

Q: And the “Production of IL-10 by splenocytes” value (OvA/FA, 0.1 μg/kg per os, OvA 100 μg/ml)?
A: 1895.4 pg/mL

Q: What about the “Production of IL-10 by splenocytes” value (OvA/FA, 1.0 μg/kg i/p, OvA 0 μg/ml) of the same molecule?
A: 457.4 pg/mL

Q: And the “Production of IL-10 by splenocytes” value [13]?
A: 813.4 pg/mL

Q: And the “Production … (% of control)” value [13]?
A: 177.8%

Q: What about the “Production of IL-10 by splenocytes” value [14] of the same molecule?
A: 774.1 pg/mL

Q: And the “Production … (% of control)” value [14]?
A: 169.2%

Q: What about the “Production of IL-10 by splenocytes” value [15] of the same molecule?
A: 852.4 pg/mL

Q: And the “Production … (% of control)” value [15]?
A: 186.4%

Q: And the “Production of IL-10 by splenocytes” value [16]?
A: 963.8 pg/mL

Q: What about the “Production … (% of control)” value [16] of the same molecule?
A: 210.7%

Q: And the “Production of IL-10 by splenocytes” value (OvA/FA, 1.0 μg/kg per os, OvA 0 μg/ml)?
A: 407.6 pg/mL

Q: What about the “Production of IL-10 by splenocytes” value (OvA/FA, 1.0 μg/kg per os, OvA 10 μg/ml) of the same molecule?
A: 953.1 pg/mL

Q: What about the “Production of IL-10 by splenocytes” value (OvA/FA, 1.0 μg/kg per os, OvA 25 μg/ml) of the same molecule?
A: 984.1 pg/mL

Q: What about the “Production of IL-10 by splenocytes” value (OvA/FA, 1.0 μg/kg per os, OvA 50 μg/ml) of the same molecule?
A: 1120.7 pg/mL

Q: And the “Production of IL-10 by splenocytes” value (OvA/FA, 1.0 μg/kg per os, OvA 100 μg/ml)?
A: 1292.2 pg/mL

Q: And the “Production of IL-10 by splenocytes” value (OvA/FA, 10.0 μg/kg per os, OvA 0 μg/ml)?
A: 627.3 pg/mL

Q: And the “Production of IL-10 by splenocytes” value (OvA/FA, 10.0 μg/kg per os, OvA 10 μg/ml)?
A: 831.6 pg/mL

Q: And the “Production of IL-10 by splenocytes” value (OvA/FA, 10.0 μg/kg per os, OvA 25 μg/ml)?
A: 1092.7 pg/mL

Q: What about the “Production of IL-10 by splenocytes” value (OvA/FA, 10.0 μg/kg per os, OvA 50 μg/ml) of the same molecule?
A: 1356.1 pg/mL

Q: What about the “Production of IL-10 by splenocytes” value (OvA/FA, 10.0 μg/kg per os, OvA 100 μg/ml) of the same molecule?
A: 1569.3 pg/mL
